According to PMC10060569 (Frontiers in Pharmacology, 2023):

Biological target: T1, L191A/S15V-hP2X3R (Homo sapiens, UniProt P56373, L191A/S15V)
T1 construct: expressed in transfected cells; host or cells: Xenopus laevis oocytes (cRNA injection)
T1 sequence (P56373 1-397 S15V/L191A): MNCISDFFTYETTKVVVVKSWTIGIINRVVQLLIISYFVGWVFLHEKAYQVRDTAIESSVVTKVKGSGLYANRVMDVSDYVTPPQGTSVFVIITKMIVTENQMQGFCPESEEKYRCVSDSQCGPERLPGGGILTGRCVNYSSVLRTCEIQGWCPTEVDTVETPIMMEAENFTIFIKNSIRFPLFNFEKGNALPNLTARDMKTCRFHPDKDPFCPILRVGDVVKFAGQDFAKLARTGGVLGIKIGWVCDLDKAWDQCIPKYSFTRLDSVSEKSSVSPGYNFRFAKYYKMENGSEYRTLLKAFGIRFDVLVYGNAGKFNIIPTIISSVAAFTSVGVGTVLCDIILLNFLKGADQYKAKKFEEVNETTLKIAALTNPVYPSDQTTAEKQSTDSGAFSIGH
Experiment: TEVC of ATP-induced currents, L191A/S15V-hP2X3R mutant in X. laevis oocytes
Format: cell-based
Method: Ion currents mediated by P2X receptors were evoked by the indicated concentration of ATP or α,β-meATP and were recorded 1 or 2 days after cRNA injection at ambient temperature at a holding potential of −60 mV by two-electrode voltage clamp (TEVC) as previously described ([Hausmann et al., 2006]). Calcium-free ORi^− solution (90 mM NaCl, 1 mM KCl, 2 mM MgCl2, 10 mM HEPES, pH 7.4) was used to avoid bias due to calcium-activated chloride channels (CaCC) endogenously expressed in X. laevis oocytes ([Miledi, 1982]; [Methfessel et al., 1986]). For recordings of wt-hP2X7R, the composition of the ORi^− solution was modified according to protocols described previously and contained 100 mM NaCl, 2.5 mM KCl, 1 mM MgCl2, 5 mM HEPES, pH 7.4 ([Klapperstück et al., 2000]). The oocytes were continuously superfused with ORi^− by gravity flow (5–10 ml/min). The agonists ATP or α,β-meATP and the investigated NSAIDs were diluted in ORi^− on the day of the recording. The following agonist concentrations were used for the different P2X subtypes: 1 μM ATP (hP2X1R mutant, hP2X3R, rP2X3R, S^15V-hP2X3R, and S^15V-rP2X3R); 10 μM ATP (hP2X2R and hP2X4R); 300 μM free ATP^4- (hP2X7R); and 1 μM α,β-meATP (hP2X2/3R). […]
In the case of fast-desensitizing P2XR subtypes (P2X1R and P2X3R), ATP is applied five times in repetition, and the ATP-induced current amplitude in the presence (after pre-incubation) of the antagonist (fourth application) is compared to the arithmetic mean of flanking control ATP-induced current amplitudes in the absence of the antagonist (third and fifth ATP application). […] The correction factor was calculated as the ratio of the fourth ATP-induced current amplitude to the third amplitude (Eq. 3) when the experiment was performed in the absence of the antagonist. […] Since the magnitude of the run-down varies from day to day and batch to batch of oocytes, the correction factor was determined on each day of the experiments and was calculated as the arithmetic mean of several recordings (at least 3–5 and on average 5) on each day. […]

## O=C(O)Cc1ccccc1Nc1c(Cl)cccc1Cl [Diclofenac, diclofenac]
read-out: % inhibition of 10 µM ATP-induced currents by 3 µM diclofenac
  inhibition at 3 µM: 7.7%
read-out: % inhibition of 10 µM ATP-induced currents by 10 µM diclofenac
  inhibition at 10 µM: 18.4%
read-out: % inhibition of 10 µM ATP-induced currents by 30 µM diclofenac
  inhibition at 30 µM: 37.3%
